Measured values from paper PMC8071358, “Targeting of the Essential acpP, ftsZ, and rne Genes in Carbapenem-Resistant Acinetobacter baumannii by Antisense PNA Precision Antibacterials” (Biomedicines, 2021).
Converted amounts (≈) assume the structure as drawn. {(KFF)3K-eg1} = H-(KFF)3K peptide (K lysine, F phenylalanine) with eg1 linker (8-amino-3,6-dioxaoctanoyl), on the PNA N terminus (5' end); {NH2} = C-terminal amide

Key:
Type in all cases: cell-based, Acinetobacter baumannii
CRAB strain AC2 [1] = assay: BPP-PNA MIC, broth microdilution; conditions: Table 4 (anti-rne), brand of medium not given; non-cation-adjusted MHB by method
Method: (§1) MIC values were determined by broth microdilution according to standard protocols with a few modifications. An overnight bacterial cell culture was diluted to approximately 5 × 10^5 CFU/mL in non-cation-adjusted Muller Hinton Broth (MHB). Then, 180 µL bacterial solutions were dispensed into a low-bind 96-well plate (Thermo-Scientific, Roskilde, Denmark) along with 20 µL of BPP-PNA compound (BPP-PNA was serially diluted 2-fold from 16 to 0.5 µM in a 96-well plate). The plate was incubated in a Tecan Genios plate reader (GMI, Minnesota, Ramsey, USA) at 37 °C for 18 h with linear shaking, OD was measured every 20 min at 595 nm. […] The minimum bactericidal concentration (MBC) values were determined by plating 10 µL samples from the wells with no visible turbidity onto Mueller–Hinton agar plates. The MBC is determined the lowest concentration of BPP-PNA that reduces the viability of the initial bacterial inoculum by ≥99.9% (3-log reduction in CFU/mL). A minimum of two independent experiments (biological replicates) of the assay were conducted, and two technical replicates were used in each experiment for each bacterium, compound, and concentration.

CRAB strain AC44 = assay: BPP-PNA MIC, broth microdilution
Method: as §1

A. baumannii ATCC 19606 = assay: BPP-PNA MIC, broth microdilution; conditions: 37 °C, 18 h
Method: as §1

A. baumannii SSI1104 = assay: BPP-PNA MIC, broth microdilution
Method: as §1, with “An overnight bacterial cell culture was diluted to approximately 5 × 10^5 CFU/mL in non-cation-adjusted Muller Hinton Broth (MHB).” left out

CRAB strain AC46 [2] = assay: BPP-PNA MIC, broth microdilution; conditions: Table 4 (anti-rne), brand of medium not given; non-cation-adjusted MHB by method
Method: as §1, with “An overnight bacterial cell culture was diluted to approximately 5 × 10^5 CFU/mL in non-cation-adjusted Muller Hinton Broth (MHB).” left out

CRAB strain AC7 = assay: Antibiotic MIC (CLSI microdilution or gradient strips); conditions: Acinetobacter baumannii, AC7, read-out: MIC, AC7
Method: (§2) All minimum inhibitory concentration (MIC) determinations for antibiotics were performed by the standard microdilution method in 96-well microplate (Thermo-Scientific, Roskilde, Denmark) or by gradient test strips (Liofilchem, Italy) according to the Clinical and Laboratory Standards Institute guidelines.

CRAB strain AC6 = assay: as above; conditions: Acinetobacter baumannii, AC6, read-out: MIC, AC6
Method: as §2

[3] = system: A. baumannii ATCC 19606 type strain; assay: as above; conditions: Acinetobacter baumannii, ATCC19606
Method: as §2, with “guidelines. Escherichia coli ATCC 25922 was used as control.” for “guidelines.”

CRAB strain AC2 [4] = assay: as above; conditions: Acinetobacter baumannii, AC2, read-out: MIC, AC2
Method: as §2, with “guidelines. Escherichia coli ATCC 25922 was used as control.” for “guidelines.”

CRAB strain AC46 [5] = assay: as above; conditions: Acinetobacter baumannii, AC46, read-out: MIC, AC46
Method: as §2, with “guidelines. Escherichia coli ATCC 25922 was used as control.” for “guidelines.”

CRAB strain AC8 = assay: as above; conditions: Acinetobacter baumannii, AC8, read-out: MIC, AC8
Method: as §2, with “guidelines. Escherichia coli ATCC 25922 was used as control.” for “guidelines.”

CRAB strain AC1 = assay: as above; conditions: Acinetobacter baumannii, AC1, wound isolate
Method: as §2, with “guidelines. Escherichia coli ATCC 25922 was used as control.” for “guidelines.”

CRAB strain SSI1104 = assay: as above; conditions: Acinetobacter baumannii, SSI1104
Method: as §2, with “guidelines. Escherichia coli ATCC 25922 was used as control.” for “guidelines.”

CRAB strain AC9 = assay: as above; conditions: Acinetobacter baumannii, AC9, read-out: MIC, AC9
Method: as §2, with “guidelines. Escherichia coli ATCC 25922 was used as control.” for “guidelines.”

CRAB strain AC4 = assay: as above; conditions: Acinetobacter baumannii, AC4, read-out: MIC, AC4
Method: as §2, with “guidelines. Escherichia coli ATCC 25922 was used as control.” for “guidelines.”

CRAB strain AC3 = assay: as above; conditions: Acinetobacter baumannii, AC3, sputum isolate
Method: as §2, with “guidelines. Escherichia coli ATCC 25922 was used as control.” for “guidelines.”

[6] = Table 4 (anti-rne), brand of medium not given, non-cation-adjusted MHB by method
[7] = MHB without cation (Oxoid), 37 °C, 18 h

## H-(KFF)3K-eg1-ATCCGTTTAAT-NH2 (all peptide nucleic acid (PNA), 5' {(KFF)3K-eg1}, 3' {NH2}) [PNA 5821, anti-rne mismatch control of 5654]
CRAB strain AC2 [1]
  MIC, AC2: 2 µM
CRAB strain AC44; [6]
  MIC, AC44: 1 µM
A. baumannii ATCC 19606; [6]
  MIC, ATCC 19606: 4 µM
A. baumannii SSI1104; [6]
  MIC, SSI 1104: 2 µM
CRAB strain AC46 [2]
  MIC, AC46: 2 µM

## H-(KFF)3K-eg1-ATGAGGCCATG-NH2 (all peptide nucleic acid (PNA), 5' {(KFF)3K-eg1}, 3' {NH2}) [PNA 5657, anti-ftsZ peptide-PNA conjugate, match, −1 to +10]
CRAB strain AC44; [7]
  MIC, AC44: 16 µM
A. baumannii ATCC 19606; MHB without cation (Oxoid)
  MIC, ATCC 19606: >16 µM

## H-(KFF)3K-eg1- TTTGATGTGTG -NH2 (all peptide nucleic acid (PNA), 5' {(KFF)3K-eg1}, 3' {NH2}) [PNA 5822, anti-rne mismatch control of 5656]
CRAB strain AC2 [1]
  MIC, AC2: 8 µM
CRAB strain AC44; [6]
  MIC, AC44: 8 µM
A. baumannii ATCC 19606; [6]
  MIC, ATCC 19606: 8 µM
A. baumannii SSI1104; [6]
  MIC, SSI 1104: 8 µM
CRAB strain AC46 [2]
  MIC, AC46: 8 µM

## H-(KFF)3K-eg1-ACGATTCTTGG-NH2 (all peptide nucleic acid (PNA), 5' {(KFF)3K-eg1}, 3' {NH2}) [PNA 5638, anti-rne mismatch control of 5637]
CRAB strain AC44; [6]
  MIC, AC44: 2 µM
A. baumannii ATCC 19606; [6]
  MIC, ATCC 19606: 2 µM
CRAB strain AC46 [2]
  MIC, AC46: 1 µM

## H-(KFF)3K-eg1-ATACGTTTCAT-NH2 (all peptide nucleic acid (PNA), 5' {(KFF)3K-eg1}, 3' {NH2}) [PNA 5654, anti-rne peptide-PNA conjugate, match, +1 to +11]
CRAB strain AC2 [1]
  MIC, AC2: 2 µM
CRAB strain AC44; [6]
  MIC, AC44: 1 µM
A. baumannii ATCC 19606; [6]
  MIC, ATCC 19606: 2 µM
A. baumannii SSI1104; [6]
  MIC, SSI 1104: 2 µM
CRAB strain AC46 [2]
  MIC, AC46: 2 µM

## CNC(C)C1CCC(N)C(OC2C(N)CC(N)C(OC3OCC(C)(O)C(NC)C3O)C2O)O1 (stereo not shown) [Gentamicin]
CRAB strain AC7
  MIC: 16 µg/mL (≈ 33.5 µM)
CRAB strain AC6
  MIC: 16 µg/mL (≈ 33.5 µM)
[3]
  MIC: 4 µg/mL (≈ 8.38 µM)
CRAB strain AC2 [4]
  MIC: 16 µg/mL (≈ 33.5 µM)
CRAB strain AC46 [5]
  MIC: 16 µg/mL (≈ 33.5 µM)
CRAB strain AC8
  MIC: 16 µg/mL (≈ 33.5 µM)
CRAB strain AC1
  MIC: 8 µg/mL (≈ 16.8 µM)
CRAB strain SSI1104
  MIC: 32 µg/mL (≈ 67 µM)
CRAB strain AC9
  MIC: 16 µg/mL (≈ 33.5 µM)
CRAB strain AC4
  MIC: 16 µg/mL (≈ 33.5 µM)
CRAB strain AC3
  MIC: 8 µg/mL (≈ 16.8 µM)

## H-(KFF)3K-eg1-GTTTCATGGGT-NH2 (all peptide nucleic acid (PNA), 5' {(KFF)3K-eg1}, 3' {NH2}) [PNA 5655, anti-rne peptide-PNA conjugate, match, −4 to +7]
CRAB strain AC2 [1]
  MIC, AC2: 8 µM
CRAB strain AC44; [6]
  MIC, AC44: 8 µM
A. baumannii ATCC 19606; [6]
  MIC, ATCC 19606: 4 µM

## H-(KFF)3K-eg1-GGCCATGACCT-NH2 (N-terminal (KFF)3K-eg1 peptide, C-terminal amide, backbone not given here, further chemistry not given here) [PNA 5658, anti-ftsZ peptide-PNA conjugate, match, −5 to +6]
CRAB strain AC44; [7]
  MIC, AC44: 8 µM
A. baumannii ATCC 19606; MHB without cation (Oxoid)
  MIC, ATCC 19606: 4 µM
A. baumannii SSI1104; [7]
  MIC, SSI 1104: 8 µM
